Measured values: publication PMC8550792, “Evolution of kinase polypharmacology across HSP90 drug discovery” (Cell Chemical Biology, 2021)

How the values were obtained:
Experiment in all cases: biochemical
Type in all cases: biochemical
382 unique human kinases [1] = target: T1, 382 unique human kinases (Homo sapiens, UniProt P53779); conditions: JNK3, compound at 10 uM, duplicate values; for remaining activity at 10 µM: read-out: % Enzyme Activity (relative to DMSO controls)
T1 construct: purchased Reaction Biology (HotSpot contract assay)

382 unique human kinases [2] = target: T2, 382 unique human kinases (Homo sapiens, UniProt Q8TD19); conditions: NEK9, 10 uM; for remaining activity at 10 µM: read-out: % Enzyme Activity (relative to DMSO controls)
T2 construct: purchased Reaction Biology (HotSpot contract assay)
T2 sequence (Q8TD19 1-979): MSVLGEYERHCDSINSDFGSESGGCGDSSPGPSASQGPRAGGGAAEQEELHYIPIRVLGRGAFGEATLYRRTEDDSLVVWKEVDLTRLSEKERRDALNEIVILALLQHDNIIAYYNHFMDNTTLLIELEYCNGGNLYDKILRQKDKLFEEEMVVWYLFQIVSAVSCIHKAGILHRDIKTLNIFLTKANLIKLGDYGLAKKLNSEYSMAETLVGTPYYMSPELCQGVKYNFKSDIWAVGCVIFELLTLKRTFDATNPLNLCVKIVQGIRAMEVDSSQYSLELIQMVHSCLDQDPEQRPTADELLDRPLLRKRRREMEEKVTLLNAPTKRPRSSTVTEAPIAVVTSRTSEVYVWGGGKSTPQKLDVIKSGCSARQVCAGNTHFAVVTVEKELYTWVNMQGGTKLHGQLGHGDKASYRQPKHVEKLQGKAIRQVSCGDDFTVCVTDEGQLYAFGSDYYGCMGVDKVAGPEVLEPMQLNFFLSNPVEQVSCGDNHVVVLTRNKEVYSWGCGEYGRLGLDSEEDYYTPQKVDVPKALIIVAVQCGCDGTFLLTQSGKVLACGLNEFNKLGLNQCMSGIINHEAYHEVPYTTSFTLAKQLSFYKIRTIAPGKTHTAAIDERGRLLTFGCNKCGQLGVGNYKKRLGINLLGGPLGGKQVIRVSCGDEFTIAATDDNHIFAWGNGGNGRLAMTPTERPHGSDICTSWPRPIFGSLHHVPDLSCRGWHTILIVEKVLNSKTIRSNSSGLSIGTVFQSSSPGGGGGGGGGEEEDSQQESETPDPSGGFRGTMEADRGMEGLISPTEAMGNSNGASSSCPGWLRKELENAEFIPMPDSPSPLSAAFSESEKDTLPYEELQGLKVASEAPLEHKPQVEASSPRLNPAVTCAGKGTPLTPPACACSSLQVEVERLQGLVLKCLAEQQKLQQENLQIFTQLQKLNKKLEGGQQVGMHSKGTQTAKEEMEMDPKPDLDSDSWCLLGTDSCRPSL

382 unique human kinases [3] = target: T3, 382 unique human kinases (Homo sapiens, UniProt Q15139); conditions: PKCmu/PRKD1, 10 uM; for remaining activity at 10 µM: read-out: % Enzyme Activity (relative to DMSO controls)
T3 construct: purchased Reaction Biology (HotSpot contract assay)
T3 sequence (Q15139 1-912): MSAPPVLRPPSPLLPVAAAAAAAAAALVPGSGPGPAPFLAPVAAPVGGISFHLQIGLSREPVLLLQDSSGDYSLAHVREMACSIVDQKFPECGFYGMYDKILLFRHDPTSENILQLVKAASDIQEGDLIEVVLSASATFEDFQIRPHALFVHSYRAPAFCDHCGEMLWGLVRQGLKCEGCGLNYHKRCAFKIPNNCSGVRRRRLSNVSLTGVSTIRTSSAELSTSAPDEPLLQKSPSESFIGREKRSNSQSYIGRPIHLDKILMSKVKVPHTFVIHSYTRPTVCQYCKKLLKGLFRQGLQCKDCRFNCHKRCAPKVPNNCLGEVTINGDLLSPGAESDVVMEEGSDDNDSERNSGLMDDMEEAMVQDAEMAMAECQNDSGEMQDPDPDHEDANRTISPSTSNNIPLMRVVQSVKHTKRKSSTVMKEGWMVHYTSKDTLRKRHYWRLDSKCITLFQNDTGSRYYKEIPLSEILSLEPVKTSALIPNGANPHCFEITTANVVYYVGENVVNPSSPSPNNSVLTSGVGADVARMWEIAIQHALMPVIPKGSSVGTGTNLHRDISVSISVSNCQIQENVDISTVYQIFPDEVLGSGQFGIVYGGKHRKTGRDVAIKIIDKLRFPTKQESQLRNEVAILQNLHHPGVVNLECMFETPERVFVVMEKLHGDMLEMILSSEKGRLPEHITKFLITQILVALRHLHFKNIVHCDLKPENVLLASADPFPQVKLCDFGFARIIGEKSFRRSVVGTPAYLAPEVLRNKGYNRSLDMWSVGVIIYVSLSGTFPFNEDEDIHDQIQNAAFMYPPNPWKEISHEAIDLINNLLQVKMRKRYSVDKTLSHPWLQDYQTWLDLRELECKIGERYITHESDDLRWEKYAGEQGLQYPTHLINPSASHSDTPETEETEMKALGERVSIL

382 unique human kinases [4] = target: T4, 382 unique human kinases (Homo sapiens, UniProt O75676); conditions: kinase MSK2/RPS6KA4, compound 10 uM; for remaining activity at 10 µM: read-out: % Enzyme Activity (relative to DMSO controls)
T4 construct: purchased Reaction Biology (HotSpot contract assay)

382 unique human kinases [5] = target: T5, 382 unique human kinases (Homo sapiens, UniProt Q9UBS0); conditions: kinase p70S6Kb/RPS6KB2, compound 10 uM; for remaining activity at 10 µM: read-out: % Enzyme Activity (relative to DMSO controls)
T5 construct: purchased Reaction Biology (HotSpot contract assay)

382 unique human kinases [6] = target: T6, 382 unique human kinases (Homo sapiens, UniProt Q13153); conditions: PAK1, 10 uM; for remaining activity at 10 µM: read-out: % Enzyme Activity (relative to DMSO controls)
T6 construct: purchased Reaction Biology (HotSpot contract assay)

382 unique human kinases [7] = target: T7, 382 unique human kinases (Homo sapiens, UniProt P43250); conditions: GRK6, 10 uM; for remaining activity at 10 µM: read-out: % Enzyme Activity (relative to DMSO controls)
T7 construct: purchased Reaction Biology (HotSpot contract assay)

382 unique human kinases [8] = target: T8, 382 unique human kinases (Homo sapiens, UniProt P11362); conditions: FGFR1, [ATP] 5 µM, compound 10 uM; for remaining activity at 10 µM: read-out: % Enzyme Activity (relative to DMSO controls)
T8 construct: purchased Reaction Biology (HotSpot contract assay)

382 unique human kinases [9] = target: T9, 382 unique human kinases (Homo sapiens, UniProt Q15349); conditions: RSK3, 10 uM; for remaining activity at 10 µM: read-out: % Enzyme Activity (relative to DMSO controls)
T9 construct: purchased Reaction Biology (HotSpot contract assay)

382 unique human kinases [10] = target: T10, 382 unique human kinases (Homo sapiens, UniProt P49841); conditions: GSK3b, [ATP] 10 µM, compound 10 uM; for remaining activity at 10 µM: read-out: % Enzyme Activity (relative to DMSO controls)
T10 construct: purchased Reaction Biology (HotSpot contract assay)

382 unique human kinases [11] = target: T11, 382 unique human kinases (Homo sapiens, UniProt P42685); conditions: FRK/PTK5, [ATP] 30 µM, compound 10 uM; for remaining activity at 10 µM: read-out: % Enzyme Activity (relative to DMSO controls)
T11 construct: purchased Reaction Biology (HotSpot contract assay)

382 unique human kinases [12] = target: T12, 382 unique human kinases (Homo sapiens, UniProt P10721, V559A); conditions: c-Kit (V559A), [ATP] 100 µM, compound 10 uM; for remaining activity at 10 µM: read-out: % Enzyme Activity (relative to DMSO controls)
T12 construct: purchased Reaction Biology (HotSpot contract assay)

382 unique human kinases [13] = target: T13, 382 unique human kinases (Homo sapiens, UniProt P09769); conditions: FGR, [ATP] 50 µM
T13 construct: purchased Reaction Biology (HotSpot contract assay)

[14] = compound 10 uM, read-out: % Enzyme Activity (relative to DMSO controls)

T8 sequence (P11362 22-822): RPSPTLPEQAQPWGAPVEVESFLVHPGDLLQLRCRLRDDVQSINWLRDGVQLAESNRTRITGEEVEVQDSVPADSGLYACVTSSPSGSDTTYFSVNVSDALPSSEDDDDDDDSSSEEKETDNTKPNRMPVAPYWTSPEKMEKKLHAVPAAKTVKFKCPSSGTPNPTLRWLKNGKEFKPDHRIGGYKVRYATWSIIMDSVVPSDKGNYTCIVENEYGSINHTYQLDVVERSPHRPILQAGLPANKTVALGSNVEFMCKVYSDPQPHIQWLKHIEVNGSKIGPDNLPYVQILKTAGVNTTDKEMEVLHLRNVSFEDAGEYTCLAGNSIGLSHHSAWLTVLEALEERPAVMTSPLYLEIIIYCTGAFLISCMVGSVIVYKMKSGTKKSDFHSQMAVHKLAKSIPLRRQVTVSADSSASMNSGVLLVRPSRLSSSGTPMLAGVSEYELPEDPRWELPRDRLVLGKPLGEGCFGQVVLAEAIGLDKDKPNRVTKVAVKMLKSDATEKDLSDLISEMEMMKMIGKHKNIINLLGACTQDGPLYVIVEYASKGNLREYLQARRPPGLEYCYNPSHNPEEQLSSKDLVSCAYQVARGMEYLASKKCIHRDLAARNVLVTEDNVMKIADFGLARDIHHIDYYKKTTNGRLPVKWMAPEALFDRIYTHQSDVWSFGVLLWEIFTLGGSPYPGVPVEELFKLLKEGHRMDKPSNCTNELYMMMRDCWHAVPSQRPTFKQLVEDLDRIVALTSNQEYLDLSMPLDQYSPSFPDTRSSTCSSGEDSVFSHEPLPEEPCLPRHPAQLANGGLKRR
T13 sequence (P09769 whole entry): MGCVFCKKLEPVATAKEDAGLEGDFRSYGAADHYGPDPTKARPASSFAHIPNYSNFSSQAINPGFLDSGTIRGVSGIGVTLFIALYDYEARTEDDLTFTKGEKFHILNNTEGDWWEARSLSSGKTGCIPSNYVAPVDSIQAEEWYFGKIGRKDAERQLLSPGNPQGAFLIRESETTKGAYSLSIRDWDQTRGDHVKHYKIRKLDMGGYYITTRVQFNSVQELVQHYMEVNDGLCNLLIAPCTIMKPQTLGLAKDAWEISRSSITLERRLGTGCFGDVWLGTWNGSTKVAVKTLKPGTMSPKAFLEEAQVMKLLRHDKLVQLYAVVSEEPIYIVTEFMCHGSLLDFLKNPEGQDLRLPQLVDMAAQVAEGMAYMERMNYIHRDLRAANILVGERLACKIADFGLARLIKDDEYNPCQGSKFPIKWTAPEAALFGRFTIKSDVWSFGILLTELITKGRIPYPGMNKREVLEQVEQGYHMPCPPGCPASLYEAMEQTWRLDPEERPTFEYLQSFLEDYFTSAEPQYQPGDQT
T6 sequence (Q13153 whole entry): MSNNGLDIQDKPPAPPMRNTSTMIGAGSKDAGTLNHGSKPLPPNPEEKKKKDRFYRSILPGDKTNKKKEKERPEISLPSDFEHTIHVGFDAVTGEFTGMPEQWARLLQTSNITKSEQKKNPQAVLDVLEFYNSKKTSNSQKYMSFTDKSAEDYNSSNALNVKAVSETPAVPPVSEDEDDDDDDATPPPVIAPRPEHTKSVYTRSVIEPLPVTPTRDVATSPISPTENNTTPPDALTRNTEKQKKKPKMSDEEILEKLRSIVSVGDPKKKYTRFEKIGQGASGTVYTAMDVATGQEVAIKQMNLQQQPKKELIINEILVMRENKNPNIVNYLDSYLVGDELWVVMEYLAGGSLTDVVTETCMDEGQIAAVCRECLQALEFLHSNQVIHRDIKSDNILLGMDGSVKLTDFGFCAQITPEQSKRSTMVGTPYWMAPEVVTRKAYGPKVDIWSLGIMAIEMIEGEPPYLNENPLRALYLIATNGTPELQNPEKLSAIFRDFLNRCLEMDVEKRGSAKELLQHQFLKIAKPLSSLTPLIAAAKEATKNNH
T10 sequence (P49841 whole entry): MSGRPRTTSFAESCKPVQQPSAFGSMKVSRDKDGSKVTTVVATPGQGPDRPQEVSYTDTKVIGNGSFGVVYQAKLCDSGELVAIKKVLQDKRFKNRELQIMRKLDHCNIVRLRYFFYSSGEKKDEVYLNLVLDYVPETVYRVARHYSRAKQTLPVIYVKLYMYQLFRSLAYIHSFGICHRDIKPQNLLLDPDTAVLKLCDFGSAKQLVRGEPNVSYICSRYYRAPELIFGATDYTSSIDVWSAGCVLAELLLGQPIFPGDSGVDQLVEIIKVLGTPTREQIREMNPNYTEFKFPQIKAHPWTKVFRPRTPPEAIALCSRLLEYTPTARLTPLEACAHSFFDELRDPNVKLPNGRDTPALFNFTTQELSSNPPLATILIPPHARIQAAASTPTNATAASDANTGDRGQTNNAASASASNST
T7 sequence (P43250 whole entry): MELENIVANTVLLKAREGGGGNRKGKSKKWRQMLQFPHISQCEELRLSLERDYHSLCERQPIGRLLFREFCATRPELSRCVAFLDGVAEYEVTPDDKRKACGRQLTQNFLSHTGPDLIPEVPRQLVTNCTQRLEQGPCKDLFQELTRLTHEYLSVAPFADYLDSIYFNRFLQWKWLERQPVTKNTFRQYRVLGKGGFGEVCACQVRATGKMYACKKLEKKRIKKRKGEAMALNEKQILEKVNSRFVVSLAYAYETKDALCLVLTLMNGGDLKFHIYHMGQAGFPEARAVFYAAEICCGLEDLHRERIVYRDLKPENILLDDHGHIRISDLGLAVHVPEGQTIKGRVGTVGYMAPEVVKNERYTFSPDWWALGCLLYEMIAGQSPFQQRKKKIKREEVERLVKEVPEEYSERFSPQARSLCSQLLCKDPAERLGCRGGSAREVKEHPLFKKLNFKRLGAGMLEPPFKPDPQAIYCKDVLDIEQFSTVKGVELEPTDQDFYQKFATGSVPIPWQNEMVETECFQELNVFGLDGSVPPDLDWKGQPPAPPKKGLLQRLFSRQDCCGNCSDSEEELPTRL
T1 sequence (P53779 whole entry): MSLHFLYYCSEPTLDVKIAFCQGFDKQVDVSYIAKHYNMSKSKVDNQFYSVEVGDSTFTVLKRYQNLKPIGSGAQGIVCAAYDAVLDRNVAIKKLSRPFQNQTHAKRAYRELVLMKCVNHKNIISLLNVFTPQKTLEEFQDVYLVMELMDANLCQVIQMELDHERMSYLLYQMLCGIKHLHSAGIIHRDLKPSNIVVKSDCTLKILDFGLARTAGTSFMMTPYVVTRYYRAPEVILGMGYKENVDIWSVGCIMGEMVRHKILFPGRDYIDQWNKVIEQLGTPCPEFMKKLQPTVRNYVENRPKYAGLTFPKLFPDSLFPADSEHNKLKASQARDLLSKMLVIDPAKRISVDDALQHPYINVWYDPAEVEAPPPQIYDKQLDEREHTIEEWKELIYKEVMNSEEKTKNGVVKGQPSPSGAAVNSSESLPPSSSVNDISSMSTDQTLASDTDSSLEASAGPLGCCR
T5 sequence (Q9UBS0 whole entry): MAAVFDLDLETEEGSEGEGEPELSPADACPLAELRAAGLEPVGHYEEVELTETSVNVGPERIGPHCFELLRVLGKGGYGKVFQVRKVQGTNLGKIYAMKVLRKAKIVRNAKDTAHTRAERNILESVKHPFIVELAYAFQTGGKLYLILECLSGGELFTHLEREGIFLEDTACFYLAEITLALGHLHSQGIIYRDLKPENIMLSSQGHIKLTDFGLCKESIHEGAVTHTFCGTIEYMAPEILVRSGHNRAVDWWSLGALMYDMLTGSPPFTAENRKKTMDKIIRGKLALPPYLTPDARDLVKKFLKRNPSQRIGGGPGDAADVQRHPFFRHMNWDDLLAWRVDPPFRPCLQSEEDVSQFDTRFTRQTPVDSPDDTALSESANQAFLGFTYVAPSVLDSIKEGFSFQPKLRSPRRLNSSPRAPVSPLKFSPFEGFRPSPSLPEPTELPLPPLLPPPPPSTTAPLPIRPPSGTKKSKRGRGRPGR
T12 sequence (P10721 26-976 V559A): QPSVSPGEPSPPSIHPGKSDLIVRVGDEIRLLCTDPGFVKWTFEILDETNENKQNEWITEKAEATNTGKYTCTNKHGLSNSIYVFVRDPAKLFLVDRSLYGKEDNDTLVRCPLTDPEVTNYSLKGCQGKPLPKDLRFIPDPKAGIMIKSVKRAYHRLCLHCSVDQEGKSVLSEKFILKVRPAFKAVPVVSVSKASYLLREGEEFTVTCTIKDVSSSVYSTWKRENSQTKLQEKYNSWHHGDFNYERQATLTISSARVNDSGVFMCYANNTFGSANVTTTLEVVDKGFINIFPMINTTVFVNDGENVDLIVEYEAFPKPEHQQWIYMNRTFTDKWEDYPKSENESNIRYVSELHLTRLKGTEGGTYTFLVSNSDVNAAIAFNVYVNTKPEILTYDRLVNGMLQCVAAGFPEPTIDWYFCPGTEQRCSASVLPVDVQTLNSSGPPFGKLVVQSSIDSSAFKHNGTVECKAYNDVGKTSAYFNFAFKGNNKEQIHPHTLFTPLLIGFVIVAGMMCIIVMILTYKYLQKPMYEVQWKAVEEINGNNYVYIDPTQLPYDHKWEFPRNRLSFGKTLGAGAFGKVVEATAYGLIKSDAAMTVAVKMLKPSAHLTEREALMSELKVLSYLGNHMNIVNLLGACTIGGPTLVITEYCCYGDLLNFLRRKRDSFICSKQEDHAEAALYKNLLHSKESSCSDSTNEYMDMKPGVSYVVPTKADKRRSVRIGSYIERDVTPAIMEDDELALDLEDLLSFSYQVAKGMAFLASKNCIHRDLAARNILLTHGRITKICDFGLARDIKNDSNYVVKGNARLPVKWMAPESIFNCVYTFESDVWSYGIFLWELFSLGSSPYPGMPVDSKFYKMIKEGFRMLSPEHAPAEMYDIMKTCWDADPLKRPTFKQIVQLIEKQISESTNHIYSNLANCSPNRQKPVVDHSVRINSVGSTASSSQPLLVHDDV

With `CC(C)c1cc(-c2n[nH]c(=O)n2-c2ccc3c(ccn3C)c2)c(O)cc1O` [Ganetespib (STA9090)] the remaining activity at 10 µM (382 unique human kinases [1]) was 118%, the remaining activity at 10 µM (382 unique human kinases [2]) was 62.5% and the remaining activity at 10 µM (382 unique human kinases [3]) was 84%. It also gave a remaining activity at 10 µM (382 unique human kinases [4]) of 87.3% and a remaining activity at 10 µM (382 unique human kinases [5]) of 96.6%.
`CC(C)c1cc(-c2n[nH]c(=O)n2-c2ccc3c(ccn3C)c2)c(O)cc1O` [Ganetespib] was tested, and the remaining activity at 10 µM (382 unique human kinases [6]) was 97.2%, the remaining activity at 10 µM (382 unique human kinases [7]) was 97.2% and the remaining activity at 10 µM (382 unique human kinases [8]) was 58.5%. For the same molecule, the remaining activity at 10 µM (382 unique human kinases [9]) was 119%, the remaining activity at 10 µM (382 unique human kinases [10]) was 29.4% and the remaining activity at 10 µM (382 unique human kinases [11]) was 18.1%. It also gave a remaining activity at 10 µM (382 unique human kinases [12]) of 43.9%, a remaining activity at 1 µM (382 unique human kinases [13]; compound 1 uM, read-out: % Enzyme Activity (relative to DMSO controls)) of 47.5% and a remaining activity at 10 µM (382 unique human kinases [13]; [14]) of 14.4%.
In the case of `CCNC(=O)c1noc(-c2cc(C(C)C)c(O)cc2O)c1-c1ccc(CN2CCOCC2)cc1` [Luminespib], the “% Enzyme Activity (relative to DMSO controls)” value (382 unique human kinases [6]) is reported as 101.44%, the remaining activity at 10 µM (382 unique human kinases [6]) is reported as 102% and the “% Enzyme Activity (relative to DMSO controls)” value (382 unique human kinases [7]) is reported as 96.43%. For the same molecule, the remaining activity at 10 µM (382 unique human kinases [7]) was 97.2%, the “% Enzyme Activity (relative to DMSO controls)” value (382 unique human kinases [8]) was 97.95% and the remaining activity at 10 µM (382 unique human kinases [8]) was 102%. For the same molecule, the “% Enzyme Activity (relative to DMSO controls)” value (382 unique human kinases [9]) was 94.51%, the remaining activity at 10 µM (382 unique human kinases [9]) was 95.2% and the “% Enzyme Activity (relative to DMSO controls)” value (382 unique human kinases [10]) was 110.01%. For the same molecule, the remaining activity at 10 µM (382 unique human kinases [10]) was 110%, the “% Enzyme Activity (relative to DMSO controls)” value (382 unique human kinases [11]) was 63.67% and the remaining activity at 10 µM (382 unique human kinases [11]) was 64.5%. For the same molecule, the “% Enzyme Activity (relative to DMSO controls)” value (382 unique human kinases [12]) was 61.54%, the remaining activity at 10 µM (382 unique human kinases [12]) was 61.6% and the “% Enzyme Activity (relative to DMSO controls)” value (382 unique human kinases [13]; compound 10 uM) was 33.14%. It also gave a remaining activity at 10 µM (382 unique human kinases [13]; [14]) of 34.1%.
With `CCNC(=O)c1noc(-c2cc(C(C)C)c(O)cc2O)c1-c1ccc(CN2CCOCC2)cc1` [Luminespib (AUY-922)] the “% Enzyme Activity (relative to DMSO controls)” value (382 unique human kinases [1]) was 106.79%, the remaining activity at 10 µM (382 unique human kinases [1]) was 107% and the “% Enzyme Activity (relative to DMSO controls)” value (382 unique human kinases [2]) was 72.56%. The remaining activity at 10 µM (382 unique human kinases [2]) was 73%, the “% Enzyme Activity (relative to DMSO controls)” value (382 unique human kinases [3]) was 86.44% and the remaining activity at 10 µM (382 unique human kinases [3]) was 86.5%. For the same molecule, the “% Enzyme Activity (relative to DMSO controls)” value (382 unique human kinases [4]) was 94.10%, the remaining activity at 10 µM (382 unique human kinases [4]) was 94.4% and the “% Enzyme Activity (relative to DMSO controls)” value (382 unique human kinases [5]) was 108.19%. The remaining activity at 10 µM (382 unique human kinases [5]) was 113%.
